The term pEC50 denotes the negative decadic logarithm of the EC50, by convention in mol/L. One may read the pIC50 as the IC50 on a negative log10 scale, so that one unit is a factor of ten.

Assay [1] concerns HCV replicon in Huh7 cells. The assay can be described thus: HCV replicon cell-based assay. Further details: species or system HCV strain 1B. As to conditions: Hepatitis C virus, Huh-7, 96 h, HCV replicon, 4 days, read-out: EC50 range. Put shortly: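 Huh7 cells carrying a genotype 1b subgenomic replicon (NS3-NS5B, neo) treated 4 days at 37° C with compound (0.5% DMSO final). NS3 protease activity read in lysates with 10 μM FRET peptide (340/490 nm, kinetic), giving EC50. Confirmed by Taqman qRT-PCR of HCV RNA and a Renilla luciferase replicon.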

Assay [2] addresses T1, HCV NS3/4A protease complex (UniProt P27958, C1454S/C1711G, species not given).
T1 construct: fused on or other part: Three-lysine solubilising tail at the C-terminus of NS4A
Description: Recombinant HCV NS3/4A protease complex FRET peptide assay (strain not stated). In kind it is biochemical. As to conditions: HCV NS3/4A protease enzyme assay, read-out: IC50 range.

pEC50, pIC50: −log10 of the molar value. A value given as a limit tells only on which side of the number the result lay.

For `C=CC1C[C@]1(NC(=O)[C@@H]1C[C@@H](OC(=O)Nc2ccccc2C(=O)OCCCC)CN1C(=O)[C@@H](NC(=O)OC(C)(C)C)C(C)(C)C)C(=O)NS(=O)(=O)C1CC1` (stereo partly drawn) [Compound 64, BocNH-P3(t-BuGly)-P2(Hyp(O—CO(NH—(2-benzoic acid butyl ester))))-P1(1R,2S VinylAcca)—CONHSO2Cyclopropane], in assay [1], the pEC50 is 6.00 to 7.00. For the same compound, the pIC50 in assay [2] was above 7.00.

Regarding `C=CC1C[C@]1(NC(=O)[C@@H]1C[C@@H](OC(=O)Nc2ccccc2I)CN1C(=O)[C@@H](NC(=O)OC(C)(C)C)C(C)(C)C)C(=O)NS(=O)(=O)C1CC1` (stereo partly drawn) [Compound 65, BocNH-P3(t-BuGly)-P2(Hyp(O—CO(NH—(2-iodo-phenyl))))-P1(1R,2S VinylAcca)—CONHSO2Cyclopropane], the pEC50 in assay [1] was 6.00 to 7.00. Also, the pIC50 in assay [2] is above 7.00.

On to `C=CC1C[C@]1(NC(=O)[C@@H]1C[C@@H](OC(=O)Nc2ccccc2CCC)CN1C(=O)[C@@H](NC(=O)OC(C)(C)C)C(C)(C)C)C(=O)NS(=O)(=O)C1CC1` (stereo partly drawn) [Compound 66, BocNH-P3(t-BuGly)-P2(Hyp(O—CO(NH—(2-propyl-phenyl))))-P1(1R,2S VinylAcca)—CONHSO2Cyclopropane], for which the pEC50 in assay [1] is 5.00 to 6.00. Besides, in assay [2], the pIC50 was above 7.00.

In the case of `C=CC1C[C@]1(NC(=O)[C@@H]1C[C@@H](OC(=O)Nc2ccccc2Oc2ccccc2)CN1C(=O)[C@@H](NC(=O)OC(C)(C)C)C(C)(C)C)C(=O)NS(=O)(=O)C1CC1` (stereo partly drawn) [Compound 67, BocNH-P3(t-BuGly)-P2(Hyp(O—CO(NH—(2-phenoxy-phenyl))))-P1(1R,2S VinylAcca)—CONHSO2Cyclopropane], in assay [1], the pEC50 was 6.00 to 7.00. Besides, in assay [2], the pIC50 was above 7.00.

As to `C=CC1C[C@]1(NC(=O)[C@@H]1C[C@@H](OC(=O)Nc2ccccc2C(=O)O)CN1C(=O)[C@@H](NC(=O)OC(C)(C)C)C(C)(C)C)C(=O)NS(=O)(=O)C1CC1` (stereo partly drawn) [Compound 69, BocNH-P3(t-BuGly)-P2(Hyp(O—CO(NH—(2-benzoic acid))))-P1(1R,2S VinylAcca)—CONHSO2Cyclopropane], the pEC50 in assay [1] was below 5.00. For the same compound, in assay [2], the pIC50 is 6.00 to 7.00.

In the case of `C=CC1C[C@]1(NC(=O)[C@@H]1C[C@@H](OC(=O)Nc2onc(C)c2C)CN1C(=O)[C@@H](NC(=O)OC(C)(C)C)C(C)(C)C)C(=O)NS(=O)(=O)C1CC1` (stereo partly drawn) [Compound 70, BocNH-P3(t-BuGly)-P2(Hyp(O—CO(NH—(3,4-Dimethyl-isoxazol-5-yl))))-P1(1R,2S VinylAcca)—CONHSO2Cyclopropane], in assay [1], the pEC50 was below 5.00. Also, the pIC50 in assay [2] is 6.00 to 7.00.

Regarding `C=CC1C[C@]1(NC(=O)[C@@H]1C[C@@H](OC(=O)Nc2cscc2C(=O)OC)CN1C(=O)[C@@H](NC(=O)OC(C)(C)C)C(C)(C)C)C(=O)NS(=O)(=O)C1CC1` (stereo partly drawn) [Compound 71, BocNH-P3(t-BuGly)-P2(Hyp(O—CO(NH-4-(thiophene-3-carboxylic acid methyl ester))))-P1(1R,2S VinylAcca)—CONHSO2Cyclopropane], the pEC50 in assay [1] is 6.00 to 7.00. In addition, the pIC50 in assay [2] is above 7.00.

Turning to `C=CC1C[C@]1(NC(=O)[C@@H]1C[C@@H](OC(=O)Nc2ncccc2C(=O)OCC)CN1C(=O)[C@@H](NC(=O)OC(C)(C)C)C(C)(C)C)C(=O)NS(=O)(=O)C1CC1` (stereo partly drawn) [Compound 72, BocNH-P3(t-BuGly)-P2(Hyp(O—CO(NH-2-(nicotinic acid ethyl ester))))-P1(1R,2S VinylAcca)—CONHSO2Cyclopropane], in assay [1], the pEC50 is 5.00 to 6.00. The pIC50 in assay [2] is above 7.00.

Turning to `C=CC1C[C@]1(NC(=O)[C@@H]1C[C@@H](OC(=O)Nc2cc(C)nn2-c2ccccc2)CN1C(=O)[C@@H](NC(=O)OC(C)(C)C)C(C)(C)C)C(=O)NS(=O)(=O)C1CC1` (stereo partly drawn) [Compound 73, BocNH-P3(t-BuGly)-P2(Hyp(O—CO(NH—(5-Methyl-2-phenyl-4H-pyrazol-3-yl))))-P1(1R,2S VinylAcca)—CONHSO2 Cyclopropane], in assay [1], the pEC50 is below 5.00. In assay [2], the pIC50 is above 7.00.

Turning to `C=CC1C[C@]1(NC(=O)[C@@H]1C[C@@H](OC(=O)Nc2ccccc2C(=O)c2ccccc2)CN1C(=O)[C@@H](NC(=O)OC(C)(C)C)C(C)(C)C)C(=O)NS(=O)(=O)C1CC1` (stereo partly drawn) [Compound 74, BocNH-P3(t-BuGly)-P2(Hyp(O—CO(NH—(2-benzophenone))))-P1(1R,2S VinylAcca)—CONHSO2Cyclopropane], the pEC50 in assay [1] was 6.00 to 7.00. The pIC50 in assay [2] was above 7.00.

Take `C=CC1C[C@]1(NC(=O)[C@@H]1C[C@@H](OC(=O)Nc2ccccn2)CN1C(=O)[C@@H](NC(=O)OC(C)(C)C)C(C)(C)C)C(=O)NS(=O)(=O)C1CC1` (stereo partly drawn) [Compound 75, BocNH-P3(t-BuGly)-P2(Hyp(O—CO(NH—(pyridin-2-yl))))-P1(1R,2S VinylAcca)—CONHSO2Cyclopropane]: in assay [1], the pEC50 is below 5.00. For the same compound, the pIC50 in assay [2] was 6.00 to 7.00.

Regarding `C=CC1C[C@]1(NC(=O)[C@@H]1C[C@@H](OC(=O)Nc2cc(C(C)=O)ccc2N2CCC(C(=O)OCC)CC2)CN1C(=O)[C@@H](NC(=O)OC(C)(C)C)C(C)(C)C)C(=O)NS(=O)(=O)C1CC1` (stereo partly drawn) [Compound 76, BocNH-P3(t-BuGly)-P2(Hyp(O—CO(NH-2-(1-(4-acetyl-phenyl))-piperidine-4-carboxylic acid ethyl ester)))-P1(1R,2S VinylAcca)—CONHSO2Cyclopropane], the negative logarithm of the EC50 (pEC50) in assay [1] is 6.00 to 7.00. In assay [2], the pIC50 was above 7.00.

Take `C=CC1C[C@]1(NC(=O)[C@@H]1C[C@@H](OC(=O)Nc2ccc(Cl)cc2-c2cc(C)n[nH]2)CN1C(=O)[C@@H](NC(=O)OC(C)(C)C)C(C)(C)C)C(=O)NS(=O)(=O)C1CC1` (stereo partly drawn) [Compound 78, BocNH-P3(t-BuGly)-P2(Hyp(O—CO(NH-1-(4-Chloro-2-(5-methyl-2H-pyrazol-3-yl)phenyl))))-P1(1R,2S VinylAcca)—CONHSO2Cyclopropane]: the pEC50 in assay [1] was below 5.00. The pIC50 in assay [2] was 6.00 to 7.00.

For the compound `C=CC1C[C@]1(NC(=O)[C@@H]1C[C@@H](OC(=O)Nc2ccccc2C(C)=O)CN1C(=O)[C@@H](NC(=O)OC(C)(C)C)C(C)(C)C)C(=O)NS(=O)(=O)C1CC1` (stereo partly drawn) [Compound 79, BocNH-P3(t-BuGly)-P2(Hyp(O—CO(NH—(2-acetophenone))))-P1(1R,2S VinylAcca)—CONHSO2Cyclopropane], the pEC50 in assay [1] was 6.00 to 7.00. The pIC50 in assay [2] is above 7.00.

Consider `C=CC1C[C@]1(NC(=O)[C@@H]1C[C@@H](OC(=O)Nc2cc(C(C)=O)ccc2N2CCCCC2)CN1C(=O)[C@@H](NC(=O)OC(C)(C)C)C(C)(C)C)C(=O)NS(=O)(=O)C1CC1` (stereo partly drawn) [Compound 80, BocNH-P3(t-BuGly)-P2(Hyp(O—CO(NH-1-(2-piperidino-5-acetylphenyl))))-P1(1R,2S VinylAcca)—CONHSO2Cyclopropane], for which, in assay [1], the pEC50 was above 7.00. For the same compound, in assay [2], the pIC50 was above 7.00.

On to `C=CC1C[C@]1(NC(=O)[C@@H]1C[C@@H](OC(=O)Nc2ccccc2-c2ccc(C)o2)CN1C(=O)[C@@H](NC(=O)OC(C)(C)C)C(C)(C)C)C(=O)NS(=O)(=O)C1CC1` (stereo partly shown) [Compound 81], for which, in assay [1], the pEC50 is above 7.00. Further, the pIC50 in assay [2] was above 7.00.

Take `C=CC1C[C@]1(NC(=O)[C@@H]1C[C@@H](OC(=O)Nc2ccccc2N2CCOCC2)CN1C(=O)[C@@H](NC(=O)OC(C)(C)C)C(C)(C)C)C(=O)NS(=O)(=O)C1CC1` (stereo partly drawn) [Compound 82, BocNH-P3(t-BuGly)-P2(Hyp(O—CO(NH-2-(morpholin-4-yl-phenyl))))-P1(1R,2S VinylAcca)—CONHSO2Cyclopropane]: the pEC50 in assay [1] is 6.00 to 7.00. Further, the pIC50 in assay [2] is above 7.00.

For the origin of these results see patent US7041698B2, “Hepatitis C virus inhibitors” (Bristol-Myers Squibb Company, priority 2002, dated 2006).
